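Exposure lasted 48 hours, with cells grown in 96-well plates and compounds tested at five concentrations. GI50 is the concentration that inhibits growth by half. Definition used: TGI = concentration required for complete inhibition of growth.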

Some test systems named below: RPMI-8226 leukemia; 786-0 renal; SK-MEL-2 melanoma; COLO 205 colon; SNB-75 CNS; SF-268 CNS; MALME-3M melanoma; OVCAR-3 ovarian; K-562 leukemia; MDA-MB-231 breast.
Common to all, as to test: NCI-60 cell line screen, 48 h

For the molecule `CC1=CC2CC(C)C1(C)CCc1ccoc12` (stereo not drawn), the TGI in the experiment with RPMI-8226 leukemia, in the experiment on 786-0 renal, with SK-MEL-2 melanoma, with COLO 205 colon, in the experiment with SNB-75 CNS and in the experiment with SF-268 CNS was over 100 µM each time. The TGI with MALME-3M melanoma, in the experiment on OVCAR-3 ovarian and in the experiment on K-562 leukemia was over 100 µM in each case.
For the molecule `Cc1cc2c(cc1Br)C1(C)CCC(C)C1(C)O2` (stereo not drawn), the TGI was 33.2 µM in the experiment with RPMI-8226 leukemia; 66.8 µM with 786-0 renal; 37.8 µM with SK-MEL-2 melanoma; 29.8 µM in the experiment on COLO 205 colon; over 100 µM with SNB-75 CNS; over 100 µM in the experiment with SF-268 CNS. Also, the TGI is 42.1 µM with MALME-3M melanoma, 53.2 µM with OVCAR-3 ovarian and 37.6 µM in the experiment on K-562 leukemia.
Turning to `COc1cc2c(c(OC)c1OC)-c1ccc(SC)c(=O)cc1C(CC(=O)Oc1cccc(C#N)c1)C2` (stereo not drawn), the TGI is 21.9 µM in the experiment on RPMI-8226 leukemia; over 100 µM in the experiment with 786-0 renal; 3.41 µM with COLO 205 colon; over 100 µM in the experiment on SF-268 CNS; over 100 µM in the experiment on MALME-3M melanoma; 0.794 µM in the experiment with OVCAR-3 ovarian.
In the case of `CC(=O)O[C@H]1CC[C@@]2(C)C(=CC[C@@H]3C2CC[C@]2(C)Nc4[nH]ncc4CC32)C1` (stereo partly drawn), the TGI in the experiment with RPMI-8226 leukemia is 65.9 µM; in the experiment with 786-0 renal it was over 100 µM; with SK-MEL-2 melanoma, 72.7 µM; with SNB-75 CNS, over 100 µM; in the experiment on MALME-3M melanoma, 86.1 µM; in the experiment on OVCAR-3 ovarian, 36.5 µM. For the same molecule, in the experiment on K-562 leukemia, the TGI amounted to 52.8 µM.
For `CCC[CH2][Sn]1([CH2]CCC)[O]C(=O)CN=Cc2ccccc2[O]1`, the GI50 in the experiment with RPMI-8226 leukemia is 0.187 µM; in the experiment on 786-0 renal, 0.517 µM; in the experiment on SK-MEL-2 melanoma, 0.22 µM; in the experiment with COLO 205 colon, 0.298 µM; with SNB-75 CNS it was 0.282 µM; with SF-268 CNS, 0.286 µM. The GI50 in the experiment on MALME-3M melanoma was 0.141 µM; in the experiment on OVCAR-3 ovarian, 0.545 µM; with K-562 leukemia, 0.192 µM. The TGI with RPMI-8226 leukemia was found to be 0.607 µM; with 786-0 renal, 1.73 µM; in the experiment with SK-MEL-2 melanoma it was 0.555 µM; in the experiment on COLO 205 colon, 1.27 µM; with SNB-75 CNS, 0.849 µM; with SF-268 CNS it was 0.859 µM. Besides, the TGI with MALME-3M melanoma is 0.469 µM; with OVCAR-3 ovarian, 1.82 µM; in the experiment on K-562 leukemia, 1.27 µM.
On to `CN(CCN(C)C(=O)CCOS(C)(=O)=O)C(=O)CCOS(C)(=O)=O`, for which the TGI in the experiment with RPMI-8226 leukemia, in the experiment on 786-0 renal, in the experiment with SK-MEL-2 melanoma, with COLO 205 colon, in the experiment with SNB-75 CNS and with SF-268 CNS was over 100 µM throughout. Besides, the TGI in the experiment with MALME-3M melanoma, with OVCAR-3 ovarian and in the experiment on K-562 leukemia was over 100 µM each time.
For the molecule `Cc1c(O)c(=O)ccn1CCO`, the TGI with RPMI-8226 leukemia, with 786-0 renal, with SK-MEL-2 melanoma, with COLO 205 colon, with SNB-75 CNS and in the experiment with SF-268 CNS was over 100 µM in each case. In addition, the TGI with MALME-3M melanoma, in the experiment with OVCAR-3 ovarian and with K-562 leukemia was over 100 µM throughout.
For `COc1ccc(C(O)/C(=C/n2ccnc2)c2ccccc2)cc1OC` (stereo not drawn), the TGI with RPMI-8226 leukemia, in the experiment with 786-0 renal, in the experiment on SK-MEL-2 melanoma, with COLO 205 colon, with SNB-75 CNS and in the experiment with SF-268 CNS was over 100 µM in each case. For the same molecule, the TGI in the experiment on MALME-3M melanoma, with OVCAR-3 ovarian and in the experiment on K-562 leukemia was over 100 µM in each case.
For `C=C1C(=O)O[C@H]2C[C@@H]1CCC1(C)OC1CC/C(C)=C/CC[C@H]2C` (stereo partly drawn), the GI50 is 20.1 µM in the experiment with RPMI-8226 leukemia; 18.4 µM in the experiment on 786-0 renal; 48.5 µM in the experiment with SK-MEL-2 melanoma; 17.7 µM in the experiment on MDA-MB-231 breast; 15.6 µM in the experiment with COLO 205 colon; 18.7 µM in the experiment on SF-268 CNS. Besides, the GI50 in the experiment on OVCAR-3 ovarian was 19.1 µM; with K-562 leukemia, 21.6 µM. Further, the TGI is 41.9 µM in the experiment with RPMI-8226 leukemia; 33.1 µM in the experiment with 786-0 renal; over 100 µM in the experiment with SK-MEL-2 melanoma; 32.2 µM with MDA-MB-231 breast; 36.2 µM with COLO 205 colon; 37 µM in the experiment with SF-268 CNS. Moreover, the TGI is 35.1 µM with OVCAR-3 ovarian and 41.2 µM in the experiment on K-562 leukemia.
In the case of `CN1C(=O)C(c2c[nH]c3ccccc23)=C(c2c(-c3c[nH]c4ccccc34)[nH]c3ccccc23)C1=O`, the GI50 with RPMI-8226 leukemia was 3.54 µM; with 786-0 renal it was 3.44 µM; in the experiment with MDA-MB-231 breast, 4.09 µM; in the experiment with COLO 205 colon it was 2.8 µM; in the experiment on SNB-75 CNS, 1.74 µM; in the experiment with SF-268 CNS it was 4.07 µM. Also, the GI50 in the experiment with OVCAR-3 ovarian was 0.92 µM; in the experiment on K-562 leukemia, 3.07 µM. Besides, the TGI in the experiment on RPMI-8226 leukemia was determined as 17.5 µM; in the experiment on 786-0 renal, 14.1 µM; with MDA-MB-231 breast, 26.9 µM; in the experiment with COLO 205 colon, 7.89 µM; with SNB-75 CNS it was 18 µM; in the experiment on SF-268 CNS, 19.5 µM. The figures for the TGI with OVCAR-3 ovarian and in the experiment with K-562 leukemia were 2.99 µM and over 100 µM, respectively.
In the case of `Clc1cc(Cl)cc(Nc2nc3ccccc3nc2-c2cccs2)c1`, the TGI was over 100 µM in the experiment on RPMI-8226 leukemia; 31.7 µM in the experiment with 786-0 renal; over 100 µM in the experiment on SK-MEL-2 melanoma; 32.9 µM with COLO 205 colon; over 100 µM with SNB-75 CNS; over 100 µM in the experiment with SF-268 CNS. Moreover, the TGI with MALME-3M melanoma is over 100 µM; in the experiment on OVCAR-3 ovarian it was 72 µM.
On to `C=CCN(CC=C)CC(C(C)=O)C(c1ccccc1)c1c(O)c2ccccc2oc1=O` (stereo not drawn), for which the TGI in the experiment on RPMI-8226 leukemia, in the experiment on 786-0 renal, with SK-MEL-2 melanoma, in the experiment on COLO 205 colon, in the experiment with SNB-75 CNS and in the experiment on SF-268 CNS was over 100 µM throughout. Further, the TGI in the experiment on MALME-3M melanoma and with K-562 leukemia was over 100 µM throughout.
Consider `C[Si]12OCCCN(CCO1)CCO2`, for which the TGI in the experiment with RPMI-8226 leukemia, in the experiment on 786-0 renal, in the experiment with SK-MEL-2 melanoma, in the experiment on COLO 205 colon, in the experiment with SNB-75 CNS and in the experiment on SF-268 CNS was over 100 µM throughout. The TGI with MALME-3M melanoma, with OVCAR-3 ovarian and in the experiment with K-562 leukemia was over 100 µM throughout.
